In US20100004285A1, “POLYMORPH OF 4-[2-[4-[1-(2-ETHOXYETHYL)-1H-BENZIMIDAZOLE-2-YL]-1-PIPERIDINYL]ETHYL]-alpha alpha-DIMETHYL-BENZENEACETIC ACID” (FAES FARMA, S.A., priority 2002, published 2010):
“Also recorded” adds a separate entry of the source.

Key:
[1] = stability of the crystalline polymorphic forms of bilastine; type: physicochemical
[2] = test system: histamine-induced lethality; assay: preventing histamine-induced lethality in the guinea-pig; type: in vivo
[3] = test system: cutaneous capillary permeability induced by histamine; assay: antagonism against cutaneous capillary permeability induced by histamine in the rat; type: in vivo

| SMILES | stability of the crystalline form [1] | antihistaminic properties: histamine-induced lethality [2] | transformation into the other polymorphs [1] | stability of the polymorph at room temperature ([1]; room temperature) | stability when stored at temperatures above room temperature ([1]; stored at temperatures above room temperature) | antihistaminic properties: cutaneous capillary permeability induced by histamine [3] |
| --- | --- | --- | --- | --- | --- | --- |
| CCOCCn1c(C2CCN(CCc3ccc(C(C)(C)C(=O)O)cc3)CC2)nc2ccccc21 [crystalline form 2, 4-[2-[4-[1-(2-ethoxyethyl)-1H benzimidazole-2-yl]-1-piperidinyl]ethyl]-αα-dimethyl-benzeneacetic acid] | stable |  |  |  |  |  |
| CCOCCn1c(C2CCN(CCc3ccc(C(C)(C)C(=O)O)cc3)CC2)nc2ccccc21 [crystalline form 3, 4-[2-[4-[1-(2-ethoxyethyl)-1H benzimidazole-2-yl]-1-piperidinyl]ethyl]-αα-dimethyl-benzeneacetic acid] | not very stable; also recorded: the most unstable |  |  |  |  |  |
| CCOCCn1c(C2CCN(CCc3ccc(C(C)(C)C(=O)O)cc3)CC2)nc2ccccc21 [crystalline form 1, 4-[2-[4-[1-(2-ethoxyethyl)-1H benzimidazole-2-yl]-1-piperidinyl]ethyl]-αα-dimethyl-benzeneacetic acid] | stable; also recorded: very stable | preventing histamine-induced lethality | not transformed into any of the other polymorphs 2 and 3 | very stable | stable | antagonism against cutaneous capillary permeability induced by histamine |
